These results are taken from US20090098222A1, “Accelerating Agent of Calcium Absorption” (priority 2006, published 2009).

Assay [1] relates to rats fed a calcium-deficient diet. In words: Effects on bone absorption of calcium (30-day oral administration). It is filed as in vivo, rat. The conditions noted are these: 30 days, 1 mg (Ca)/day, GA coadministered with Ca, compared with the Ca-treated group, FIG. 6. From the text:
(§1) […]. Male Wistar rats weighing 200-250 g, and about 120 g especially in the experiment of studying calcium born absorption (Test Example 3), were used as an experimental animal.
Next, it was studied whether the accelerating effect of GA on calcium absorption reaches bone absorption, and prevents the decease of calcium content in the bone, using rats fed a calcium-deficient diet.
Calcium (Ca-treated group), or calcium and GA ([Ca+GA]-treated group) were orally administered to rats for 30 days with an amount of 1 mg (ca)/day, and changes of hardness and mineral (Ca, Mg, P, Zn) content of the femur, or ALP in blood were observed. Rats were fed a calcium-deficient diet in order to eliminate an effect of calcium contained in the normal diet.

The test system is the same in assay [2]. In words: Effects on urinary excretion of calcium (metabolic cage). It is filed as in vivo, rat. The following applies: total for three days, 40 mL of water containing the substance, FIG. 2. As for the experimental part: as §1
Usually, calcium concentrations in blood are constantly maintained by biogenic homeostasis and it is difficult to utilize it as an index of calcium absorption. Accordingly, the urinary excretion of calcium was assayed in place of it.
Rats were kept in a metabolic cage and 40 mL of water containing calcium (Ca), Gum Arabic (GA), or Ca and GA (Ca+GA) was given for three days. […]. After recovering urine, urinary concentration of calcium and urine volume were measured.

For the molecule `C[C@H](O)C(=O)[O-].C[C@H](O)C(=O)[O-].[Ca+2]` [Ca, calcium L-lactate], the ALP in blood entry in assay [1] is given as “elevation of ALP in blood was observed”. Further, the “urinary excretion of calcium” value in assay [2] was “not increased”.
